We go through one molecule from article PMC7714403 (JCI Insight, 2020).

The structures appear in SMILES notation.

One experiment has as its target PIK3C3 (Homo sapiens, UniProt Q8NEB9). Briefly: KiNativ, OCI cells live cell. It is filed as cell-based. As to conditions: 2 h, labeling site ATP.
In a further experiment the target is FLT3 ITD (Homo sapiens, UniProt P36888, ITD). The experiment is described as follows: Kinase assay by Reaction Biology. It is filed as biochemical. As to conditions: enzymatic kinase assay.
Experiment [1] addresses T1, FLT3 D835Y (Homo sapiens, UniProt P36888, D835Y).
T1 construct: purchased Eurofins DiscoverX
The experiment is described as follows: KdELECT binding assay.

The target of another experiment is SGK3 (Homo sapiens, UniProt Q96BR1). Briefly: KiNativ, OCI cells live cell. It is filed as cell-based. As to conditions: 2 h, labeling site Lys1, peptide […].
The target in the next experiment is T2, JAK3 domain2 (Homo sapiens, UniProt P52333).
T2 construct: JAK3 domain2
Briefly: KiNativ, OCI cells live cell. It is filed as cell-based. As to conditions: 2 h, labeling site Lys1, peptide […].

Another experiment has as its system CDK11, CDK8. Briefly: KiNativ, OCI cells live cell. It is filed as cell-based, human. As to conditions: labeling site Lys2, peptide DLKPANILVMGEGPER
In another experiment the target is IRAK2 (Homo sapiens, UniProt O43187). The experiment is described as follows: KiNativ, OCI cells live cell. It is filed as cell-based. As to conditions: 2 h, labeling site Lys1, peptide […].
The next experiment concerns MOLM13-Luc+ cells. Briefly: MOLM13-Luc+ xenograft model. It counts as in vivo, NSG mice. As to conditions: 3 weeks. The protocol: Engraftment and growth of leukemic cells were monitored by noninvasive bioluminescence imaging in cell line xenograft models, as previously done ([47]). Details on the cell engraftment and dosing in mouse models are provided in the Supplemental Methods.
Cell viability of primary samples
HS5-GFP human bone marrow stromal cells were plated and cultured for 72 hours to near confluence.
MOLM13 cells were then seeded onto HS5-GFP cells to establish a co-culture. Twenty-four hours later, cells were treated with increasing concentrations of drug for an additional 72 hours. MOLM13 and HS5-GFP cells were then separated and MTT assay s were performed for cell viability assessment of each cell population.
For murine or human primary AML cells, 100,000 cells/well were plated in a 96-well plate and treated with increasing concentrations of drug. Cell viability, via trypan blue, was measured every 24 hours. If the viability fell below 50% or at 72 hours of treatment, whichever came earlier, cell viability of each plate was measured via CellTiter-Glo. Primary human AML cells were obtained from the OSUCCC Leukemia Tissue Bank Shared […]
Primary AML samples were analyzed by targeted gene sequencing of 80 genes, as previously described (1). Samples were pooled and analyzed on a MiSeq system using the Illuminia MiSeq Reagent Kit v3. […]
Luc+ or MOLM13-Res -Luc+ cells, 0.5 million OCI-AML3 -Luc+ cells, and 10,000 Ba/F3-FLT3-ITD/F691L-GFP+ cells. Weekly tumor engraftment of cell line xenograft models were assessed after injection of D-luciferin (150mg/kg i.p.; Gold Biotechnology, Inc, St. Louis, MO) on Xenogen IVIS-200 imaging system (Perkin Elmer, Waltham, MA) or GFP monitoring by peripheral blood via BD LSR II flow cytometer (BD Biosciences, San Jose, CA). Signal intensity was analyzed using Living Image Software (PerkinElmer) or FlowJo v10.0.08 software (FlowJo, LLC, Ashland, OR). […]
At indicated time points, cells were collected and washed with PBS. CD11b expression was measured using anti-CD11b -APC antibody (BioLegend, San Diego, CA). […]

Experiment [2] has as its target T1, FLT3 D835Y. Briefly: Kinase assay by Reaction Biology. It counts as biochemical. As to conditions: enzymatic kinase assay.
Another experiment deals with PKCd (Homo sapiens, UniProt Q05655). Briefly: KiNativ, OCI cells live cell. It counts as cell-based. As to conditions: 2 h, labeling site Other, peptide […].
Another experiment concerns the target EphB3 (Homo sapiens, UniProt P54753). The experiment is described as follows: KiNativ, OCI cells live cell. As to conditions: 2 h, labeling site Activation Loop, peptide […]. It counts as cell-based.
The target in the next experiment is FLT3 ITD/F691L (Homo sapiens, UniProt P36888, F691L/ITD). Briefly: KdELECT binding assay.
For a further experiment, the target named is T3, CHEK1 (Homo sapiens, UniProt O14757).
T3 construct: purchased Eurofins DiscoverX
The experiment is described as follows: KdELECT binding assay.

Another experiment addresses MAST3 (Homo sapiens, UniProt O60307). Briefly: KiNativ, OCI cells live cell. It counts as cell-based. As to conditions: 2 h, labeling site Lys2, peptide […].
The target in the next experiment is ULK3 (Homo sapiens, UniProt Q6PHR2). The experiment is described as follows: KiNativ, OCI cells live cell. It counts as cell-based. As to conditions: labeling site Lys1, peptide EVVAIKCVAK
Another experiment concerns the target MAP2K7 (Homo sapiens, UniProt O14733). Briefly: KiNativ, OCI cells live cell. It counts as cell-based. As to conditions: labeling site Lys2, peptide DVKPSNILLDER

One may read the inhibition as the change of the read-out against control, counted positive when it falls. What is called IC50 is the midpoint of a concentration-inhibition curve. Lower therefore signals greater potency in that assay. For orientation: Kd means the equilibrium constant for the complex coming apart. The low end stands for higher affinity, the high end for lower affinity. Usually Inhibition stands for the relative decrease from the control value, in per cent.

PIK3C3, sequence (Q8NEB9 whole entry): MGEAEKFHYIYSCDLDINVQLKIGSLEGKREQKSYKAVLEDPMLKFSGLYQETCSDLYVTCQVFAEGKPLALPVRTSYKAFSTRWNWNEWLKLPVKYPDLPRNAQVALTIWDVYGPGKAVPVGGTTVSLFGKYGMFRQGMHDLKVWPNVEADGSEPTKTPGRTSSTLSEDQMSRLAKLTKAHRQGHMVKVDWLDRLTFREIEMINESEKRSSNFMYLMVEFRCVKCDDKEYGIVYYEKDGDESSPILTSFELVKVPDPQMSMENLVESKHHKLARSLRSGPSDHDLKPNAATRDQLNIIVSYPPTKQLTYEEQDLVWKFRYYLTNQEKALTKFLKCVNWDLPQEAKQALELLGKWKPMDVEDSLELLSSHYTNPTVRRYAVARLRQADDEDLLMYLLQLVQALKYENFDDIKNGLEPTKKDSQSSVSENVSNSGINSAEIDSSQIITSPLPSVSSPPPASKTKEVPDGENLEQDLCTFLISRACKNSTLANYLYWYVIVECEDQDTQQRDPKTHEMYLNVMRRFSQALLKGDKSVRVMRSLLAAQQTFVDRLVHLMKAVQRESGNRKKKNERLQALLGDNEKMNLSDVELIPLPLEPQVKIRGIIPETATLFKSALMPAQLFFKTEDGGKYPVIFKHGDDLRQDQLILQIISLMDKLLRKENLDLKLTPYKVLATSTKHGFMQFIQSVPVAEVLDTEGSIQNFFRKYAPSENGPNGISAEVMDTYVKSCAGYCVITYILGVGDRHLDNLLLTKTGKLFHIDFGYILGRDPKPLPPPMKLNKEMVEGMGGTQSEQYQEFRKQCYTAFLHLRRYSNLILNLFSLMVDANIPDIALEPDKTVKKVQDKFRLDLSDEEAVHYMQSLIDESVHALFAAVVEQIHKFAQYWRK
ULK3, sequence (Q6PHR2 whole entry): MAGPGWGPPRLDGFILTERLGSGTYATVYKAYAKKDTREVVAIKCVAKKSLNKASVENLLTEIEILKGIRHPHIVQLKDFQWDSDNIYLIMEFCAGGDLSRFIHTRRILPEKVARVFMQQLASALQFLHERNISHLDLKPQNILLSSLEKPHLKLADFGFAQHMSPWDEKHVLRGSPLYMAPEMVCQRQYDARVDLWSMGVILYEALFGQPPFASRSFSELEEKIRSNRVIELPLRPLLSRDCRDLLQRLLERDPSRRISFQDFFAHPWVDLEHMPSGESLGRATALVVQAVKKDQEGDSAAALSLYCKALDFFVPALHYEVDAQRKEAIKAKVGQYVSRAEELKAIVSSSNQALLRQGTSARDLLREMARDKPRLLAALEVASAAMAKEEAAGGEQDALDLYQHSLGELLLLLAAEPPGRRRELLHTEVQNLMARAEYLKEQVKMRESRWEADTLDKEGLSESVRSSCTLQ
MAP2K7, sequence (O14733 whole entry): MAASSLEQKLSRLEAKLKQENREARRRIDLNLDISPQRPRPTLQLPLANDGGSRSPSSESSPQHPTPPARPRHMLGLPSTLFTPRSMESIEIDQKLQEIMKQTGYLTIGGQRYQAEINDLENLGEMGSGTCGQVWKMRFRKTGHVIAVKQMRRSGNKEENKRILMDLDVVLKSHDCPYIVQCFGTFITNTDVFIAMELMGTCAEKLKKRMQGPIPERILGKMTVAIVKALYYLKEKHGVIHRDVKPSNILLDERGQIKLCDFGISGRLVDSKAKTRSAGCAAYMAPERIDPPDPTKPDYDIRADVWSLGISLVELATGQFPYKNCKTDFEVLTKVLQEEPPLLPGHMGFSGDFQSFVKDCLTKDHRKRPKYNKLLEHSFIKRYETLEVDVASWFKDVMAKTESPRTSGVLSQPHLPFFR
MAST3, sequence (O60307 whole entry): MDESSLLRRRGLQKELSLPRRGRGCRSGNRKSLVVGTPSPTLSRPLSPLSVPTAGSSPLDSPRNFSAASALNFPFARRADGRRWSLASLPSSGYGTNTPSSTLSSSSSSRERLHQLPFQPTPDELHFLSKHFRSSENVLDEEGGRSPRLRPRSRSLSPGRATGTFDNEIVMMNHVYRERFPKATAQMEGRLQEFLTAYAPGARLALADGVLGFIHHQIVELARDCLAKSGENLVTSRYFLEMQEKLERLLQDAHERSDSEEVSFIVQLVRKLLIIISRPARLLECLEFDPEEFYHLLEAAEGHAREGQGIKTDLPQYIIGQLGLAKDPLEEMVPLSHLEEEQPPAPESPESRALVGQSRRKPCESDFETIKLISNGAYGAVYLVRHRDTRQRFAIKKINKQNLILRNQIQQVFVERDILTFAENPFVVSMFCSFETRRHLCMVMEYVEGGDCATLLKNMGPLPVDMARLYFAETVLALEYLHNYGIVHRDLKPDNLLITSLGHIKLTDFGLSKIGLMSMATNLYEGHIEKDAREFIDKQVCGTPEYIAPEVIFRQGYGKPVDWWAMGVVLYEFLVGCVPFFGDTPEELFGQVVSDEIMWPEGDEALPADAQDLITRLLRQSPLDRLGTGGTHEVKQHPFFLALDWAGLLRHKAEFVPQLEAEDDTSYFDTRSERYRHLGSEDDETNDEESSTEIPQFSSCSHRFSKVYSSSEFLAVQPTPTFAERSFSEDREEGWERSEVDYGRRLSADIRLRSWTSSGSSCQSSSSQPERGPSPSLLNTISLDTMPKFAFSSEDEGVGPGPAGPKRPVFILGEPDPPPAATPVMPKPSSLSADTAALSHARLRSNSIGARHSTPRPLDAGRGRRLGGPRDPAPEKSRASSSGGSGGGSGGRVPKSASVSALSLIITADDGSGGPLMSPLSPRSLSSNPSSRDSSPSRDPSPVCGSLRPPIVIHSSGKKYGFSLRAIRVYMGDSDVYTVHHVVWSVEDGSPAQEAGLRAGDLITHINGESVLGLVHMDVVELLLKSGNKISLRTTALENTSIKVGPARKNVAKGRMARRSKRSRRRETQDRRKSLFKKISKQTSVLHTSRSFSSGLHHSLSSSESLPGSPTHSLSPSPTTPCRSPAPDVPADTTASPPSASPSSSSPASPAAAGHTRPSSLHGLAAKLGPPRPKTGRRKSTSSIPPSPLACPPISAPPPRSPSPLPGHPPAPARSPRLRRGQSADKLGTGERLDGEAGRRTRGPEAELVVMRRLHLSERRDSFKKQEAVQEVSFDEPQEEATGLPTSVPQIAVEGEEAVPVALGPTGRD
IRAK2, sequence (O43187 whole entry): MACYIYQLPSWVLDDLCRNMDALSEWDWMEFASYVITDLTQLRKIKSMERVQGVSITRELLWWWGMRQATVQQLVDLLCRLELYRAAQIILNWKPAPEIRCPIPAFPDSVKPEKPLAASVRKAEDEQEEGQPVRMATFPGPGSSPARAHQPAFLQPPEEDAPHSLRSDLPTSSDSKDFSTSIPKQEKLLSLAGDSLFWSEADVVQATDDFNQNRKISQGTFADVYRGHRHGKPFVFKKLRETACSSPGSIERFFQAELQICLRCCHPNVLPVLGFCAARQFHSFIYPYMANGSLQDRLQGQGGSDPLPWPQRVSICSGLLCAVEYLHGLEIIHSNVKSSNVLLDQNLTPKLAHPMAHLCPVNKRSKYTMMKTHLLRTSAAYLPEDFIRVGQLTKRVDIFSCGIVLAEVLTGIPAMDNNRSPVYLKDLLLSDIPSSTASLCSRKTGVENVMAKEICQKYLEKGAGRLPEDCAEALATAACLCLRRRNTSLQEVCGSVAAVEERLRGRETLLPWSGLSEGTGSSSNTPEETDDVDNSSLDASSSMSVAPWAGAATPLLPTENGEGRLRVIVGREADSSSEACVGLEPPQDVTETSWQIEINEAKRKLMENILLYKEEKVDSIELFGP
EphB3, sequence (P54753 34-998): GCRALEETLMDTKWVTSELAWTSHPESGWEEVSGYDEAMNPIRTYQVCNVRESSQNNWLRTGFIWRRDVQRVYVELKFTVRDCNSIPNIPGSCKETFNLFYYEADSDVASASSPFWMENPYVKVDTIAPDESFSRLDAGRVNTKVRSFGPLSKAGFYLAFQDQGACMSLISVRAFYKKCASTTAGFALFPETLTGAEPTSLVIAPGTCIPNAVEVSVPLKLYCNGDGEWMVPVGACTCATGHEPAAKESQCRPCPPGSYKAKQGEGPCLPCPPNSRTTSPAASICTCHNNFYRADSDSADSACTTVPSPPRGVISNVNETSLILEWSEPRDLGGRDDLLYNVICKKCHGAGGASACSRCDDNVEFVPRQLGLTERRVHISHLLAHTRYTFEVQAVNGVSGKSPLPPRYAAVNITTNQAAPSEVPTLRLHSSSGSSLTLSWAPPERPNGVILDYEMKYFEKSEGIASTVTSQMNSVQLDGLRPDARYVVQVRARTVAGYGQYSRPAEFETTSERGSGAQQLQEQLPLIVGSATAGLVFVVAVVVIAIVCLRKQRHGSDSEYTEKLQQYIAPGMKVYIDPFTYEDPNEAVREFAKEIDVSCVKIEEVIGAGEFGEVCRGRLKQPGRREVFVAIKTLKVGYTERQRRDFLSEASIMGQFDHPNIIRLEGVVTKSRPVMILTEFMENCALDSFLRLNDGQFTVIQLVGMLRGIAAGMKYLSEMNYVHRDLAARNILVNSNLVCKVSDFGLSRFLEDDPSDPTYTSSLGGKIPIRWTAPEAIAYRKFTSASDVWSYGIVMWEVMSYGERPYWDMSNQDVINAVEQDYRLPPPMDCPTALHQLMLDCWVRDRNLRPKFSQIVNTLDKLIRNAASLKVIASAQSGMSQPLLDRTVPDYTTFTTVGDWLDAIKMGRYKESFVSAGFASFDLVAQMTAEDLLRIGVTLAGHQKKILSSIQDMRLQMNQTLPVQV

As to `CN1CCN(Cc2ccc(Nc3ncc(Cl)c(Nc4ccccc4S(=O)(=O)N(C)C)n3)cc2)CC1` [TP-0903], the inhibition at 0.1 µM against PIK3C3 (peptide TEDGGKYPVIFKHGDDLR) is -16.8%; against PIK3C3 (peptide TEDGGKYPVIFKHGDDLRQDQLILQIISLMDK), -18.2%; at SGK3 it was -12.3%; against JAK3 domain2, 31%; against IRAK2, -9.1%; on PKCd it was -22.5%. Also, the inhibition at 0.1 µM against EphB3 is 17.1%; on MAST3, -0.112%. The IC50 was 3.9 nM on FLT3 ITD and 0.12 nM against FLT3 D835Y [2]. The figures for the Kd at FLT3 D835Y [1], on FLT3 ITD/F691L and on CHEK1 were 1.4 nM, 1.9 nM and 24 nM, respectively. Also, the Inhibition in the experiment on CDK11, CDK8 is -14.9%; on ULK3 it was 40.5%; at MAP2K7, -6.6%. The “Survival prolonged compared with vehicle” value is 13 days in the experiment on MOLM13-Luc+ cells (60 mg/kg 5 days a week) and 17 days in the experiment on MOLM13-Luc+ cells (60 mg/kg once daily continuously). Also, the “Leukemia outgrowth (bioluminescence)” value in the experiment on MOLM13-Luc+ cells (60 mg/kg) was “suppressed leukemia outgrowth”.
